Data taken from PubChem BioAssay AID330 (DTP/NCI, 2004).
Where “and” joins values, the source holds several entries; their conditions need not be identical. Equal values may be shown once. Toxic doses and inconclusive results are not listed.

Tested on: P388 leukemia ip, CD2F1 mice, survival T/C
Test: NCI In Vivo Anticancer Drug Screen. Data for tumor model P388 Leukemia (intraperitoneal) in CD2F1 (CDF1) mice
Settings: endpoint: median survival time, higher = longer survival
Outline: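 Mice carrying the transplanted tumor received test compound or vehicle. Survival was recorded in each group, and the value is the treated-group measurement divided by that of the vehicle-treated control group.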

[1] = dose: 25.0 mg/kg/injection, schedule: Q01DX005 (ip), vehicle: saline with Tween-80
[2] = dose: 50.0 mg/kg/injection, schedule: Q01DX005 (ip), vehicle: saline with Tween-80
[3] = dose: 100.0 mg/kg/injection, schedule: Q01DX005 (ip), vehicle: saline with Tween-80
[4] = dose: 200.0 mg/kg/injection, schedule: Q01DX005 (ip), vehicle: saline with Tween-80
[5] = dose: 50.0 mg/kg/injection, schedule: Q01DX009 (ip), vehicle: saline
[6] = dose: 100.0 mg/kg/injection, schedule: Q01DX009 (ip), vehicle: saline
[7] = dose: 200.0 mg/kg/injection, schedule: Q01DX009 (ip), vehicle: saline
[8] = dose: 100.0 mg/kg/injection, schedule: Q04DX003 (ip), vehicle: saline with Tween-80
[9] = dose: 200.0 mg/kg/injection, schedule: Q04DX003 (ip), vehicle: saline with Tween-80
[10] = dose: 400.0 mg/kg/injection, schedule: Q04DX003 (ip), vehicle: saline with Tween-80
[11] = dose: 60.0 mg/kg/injection, schedule: Q01DX005 (ip), vehicle: saline with Tween-80
[12] = dose: 120.0 mg/kg/injection, schedule: Q01DX005 (ip), vehicle: saline with Tween-80
[13] = dose: 240.0 mg/kg/injection, schedule: Q01DX005 (ip), vehicle: saline with Tween-80

Structure (SMILES): CC(C)NC(=O)OCc1c(COC(=O)NC(C)C)c2n(c1-c1ccc(Cl)c(Cl)c1)CCS2(=O)=O
- T/C [1]: 106 % of control
- T/C [2]: 97 % of control
- T/C [3]: 88 % of control
- T/C [4]: 86 % of control

Structure (SMILES): CCc1ccc(O)c(CN2CCN(Cc3cc(CC)ccc3O)CC2)c1
- T/C (dose: 15.0 mg/kg/injection, schedule: Q01DX005 (ip), vehicle: saline with Tween-80): 89 % of control
- T/C (dose: 30.0 mg/kg/injection, schedule: Q01DX005 (ip), vehicle: saline with Tween-80): 86 % of control

Structure (SMILES): Cc1oc2c(c(C)nn2-c2ccccc2)c(=O)c1Cl
- T/C (dose: 50.0 mg/kg/injection, schedule: Q01DX005 (ip), vehicle: Klucel (hydroxypropylcellulose) (HPC)): 92 % of control
- T/C (dose: 100.0 mg/kg/injection, schedule: Q01DX005 (ip), vehicle: Klucel (hydroxypropylcellulose) (HPC)): 106 % of control
- T/C (dose: 200.0 mg/kg/injection, schedule: Q01DX005 (ip), vehicle: Klucel (hydroxypropylcellulose) (HPC)): 108 % of control

Structure (SMILES): O=C(O)c1c(Cl)c(Cl)c(Cl)c(Cl)c1C(=O)Nc1ccc2cn[nH]c2c1
- T/C (dose: 50.0 mg/kg/injection, schedule: Q01DX009 (ip), vehicle: saline + alcohol): 101 % of control
- T/C (dose: 100.0 mg/kg/injection, schedule: Q01DX009 (ip), vehicle: saline + alcohol): 100 % of control

Structure (SMILES): O=C(O)C(O)C(O)C1[O][Sb][O]C1CO (stereo not drawn)
- T/C [2]: 98 % of control
- T/C [3]: 96 % of control
- T/C [4]: 96 % of control

Structure (SMILES): CC[n+]1c(C)sc2ccccc21
- T/C (dose: 25.0 mg/kg/injection, schedule: Q01DX005 (ip), vehicle: saline): 91 % of control
- T/C (dose: 50.0 mg/kg/injection, schedule: Q01DX005 (ip), vehicle: saline): 94 % of control

Structure (SMILES): OC(CN1CCOCC1)c1ccccn1 (stereo not drawn)
- T/C [5]: 95 % of control
- T/C [6]: 92 % of control
- T/C [7]: 92 % of control

Structure (SMILES): O=C(Nc1nc2cccnc2s1)C(F)(F)F
- T/C (dose: 50.0 mg/kg/injection, schedule: Q01DX009 (ip), vehicle: saline with Tween-80): 100 % of control
- T/C (dose: 100.0 mg/kg/injection, schedule: Q01DX009 (ip), vehicle: saline with Tween-80): 97 % of control
- T/C (dose: 200.0 mg/kg/injection, schedule: Q01DX009 (ip), vehicle: saline with Tween-80): 94 % of control

Structure (SMILES): C=C=COC
- T/C (dose: 60.0 mg/kg/injection, schedule: Q01DX005 (ip), vehicle: saline): 93 % of control
- T/C (dose: 120.0 mg/kg/injection, schedule: Q01DX005 (ip), vehicle: saline): 95 % of control
- T/C (dose: 240.0 mg/kg/injection, schedule: Q01DX005 (ip), vehicle: saline): 95 % of control

Structure (SMILES): O=C1OC(=O)C2C1C1(c3ccccc3)OC2(c2ccccc2)c2ccccc21 (stereo not drawn)
- T/C [8]: 110 % of control
- T/C [9]: 109 % of control
- T/C [10]: 118 % of control

Structure (SMILES): CC1(C)SC(C(NC(=O)Cc2ccccc2)C(=O)O)NC1C(=O)O (stereo not drawn)
- T/C [8]: 90 % of control
- T/C [9]: 100 % of control
- T/C [10]: 104 % of control

Structure (SMILES): O=CCSC(=S)NNc1ccccc1
- T/C (dose: 25.0 mg/kg/injection, schedule: Q01DX009 (ip), vehicle: saline): 103 % of control
- T/C [5]: 90 % of control
- T/C [6]: 105 % of control
- T/C [7]: 96 % of control

Structure (SMILES): NC(=O)c1sc(N2CCCC2)nc1N
- T/C [11]: 112 % of control
- T/C [12]: 105 % of control
- T/C [13]: 118 % of control

Structure (SMILES): CNCCCN1c2ccccc2CCc2ccccc21
- T/C [2]: 103 % of control

Structure (SMILES): CC(=O)CC(C)=NCCN=C(C)CC(C)=O.C[CH2][Sn][CH2]C
- T/C (dose: 12.5 mg/kg/injection, schedule: Q04DX003 (ip), vehicle: saline): 106 % of control
- T/C (dose: 25.0 mg/kg/injection, schedule: Q04DX003 (ip), vehicle: saline): 105 % of control
- T/C (dose: 50.0 mg/kg/injection, schedule: Q04DX003 (ip), vehicle: saline): 120 % of control
- T/C (dose: 100.0 mg/kg/injection, schedule: Q04DX003 (ip), vehicle: saline): 150 % of control

Structure (SMILES): Nc1nc2nc(N)[nH]c2c(=O)[nH]1
- T/C (dose: 12.5 mg/kg/injection, schedule: Q01DX005 (ip), vehicle: saline with Tween-80): 95 % of control
- T/C [1]: 100 % of control and 105 % of control and 106 % of control
- T/C [2]: 100 % of control and 104 % of control and 113 % of control
- T/C [4]: 107 % of control

Structure (SMILES): Cc1ccc(C)c(NC(=O)CCC(=O)C(C#N)c2cccc3ccccc23)c1 (stereo not drawn)
- T/C [11]: 104 % of control
- T/C [12]: 104 % of control
- T/C [13]: 105 % of control

Structure (SMILES): CC(C)CC(=O)C(c1ccccc1)C(CC(C)C)C(=O)C1C(c2ccccc2)CC(=O)C(C(C)C)C1c1ccccc1 (stereo not drawn)
- T/C [2]: 101 % of control
- T/C [3]: 92 % of control
- T/C [4]: 87 % of control
